According to ChEMBL document CHEMBL1201862, “PubChem BioAssay data set” (2004):
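Five compound concentrations were applied to cells in 96-well plates for 48 hours; endpoints were derived by simple linear interpolation of the resulting dose-response curve. At the GI50, growth is halved.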 Activity calls are given as the source filed them. Cut-off read from the data, not from the text of the source: active = GI50 up to about 1.1 µM and inactive = higher.

Tests used:
Assay in all cases: growth of human tumour cells (NCI), 48 h
CAKI-1 = test system: CAKI-1
ACHN = test system: ACHN
NCI-H226 = test system: NCI-H226
NCI-H23 = test system: NCI-H23
M14 = test system: M14
KM12 = test system: KM12
SF-268 = test system: SF-268
HL-60 = test system: HL-60
OVCAR-5 = test system: OVCAR-5
A498 = test system: A498
RXF 631 = test system: RXF 631
OVCAR-3 = test system: OVCAR-3
SF-539 = test system: SF-539
SK-MEL-5 = test system: SK-MEL-5
LXFL 529 = test system: LXFL 529
SNB-75 = test system: SNB-75
UACC-62 = test system: UACC-62
DMS-114 = test system: DMS-114
KM-20L2 = test system: KM-20L2
HOP-62 = test system: HOP-62
DMS-273 = test system: DMS-273
CCRF-CEM = test system: CCRF-CEM
XF498 = test system: XF498
A549 = test system: A549
OVCAR-8 = test system: OVCAR-8
SN12C = test system: SN12C
EKVX = test system: EKVX
OVCAR-4 = test system: OVCAR-4
SW-620 = test system: SW-620
UACC-257 = test system: UACC-257
HT-29 = test system: HT-29
COLO 205 = test system: COLO 205
LOX IMVI = test system: LOX IMVI
SK-MEL-28 = test system: SK-MEL-28
SK-OV-3 = test system: SK-OV-3
SK-MEL-2 = test system: SK-MEL-2
MOLT-4 = test system: MOLT-4
NCI-H522 = test system: NCI-H522
K562 = test system: K562
U-251 = test system: U-251
Malme-3M = test system: Malme-3M
M19-MEL = test system: M19-MEL
TK-10 = test system: TK-10
NCI-H460 = test system: NCI-H460
RPMI-8226 = test system: RPMI-8226
HOP-18 = test system: HOP-18
IGROV-1 = test system: IGROV-1
HCT-15 = test system: HCT-15
HOP-92 = test system: HOP-92
UO-31 = test system: UO-31
SNB-19 = test system: SNB-19
RXF 393 = test system: RXF 393
786-0 = test system: 786-0
SF-295 = test system: SF-295

For `CC(C)N1CC2CC(CN(C(=O)c3ccc(Cl)cc3)C2)C1`, the GI50 (CAKI-1) was > 100 µM (inactive), the GI50 (ACHN) was > 100 µM (inactive) and the GI50 (NCI-H226) was > 100 µM (inactive). For the same compound, the GI50 (NCI-H23) was > 100 µM (inactive), the GI50 (M14) was > 100 µM (inactive) and the GI50 (KM12) was > 100 µM (inactive). For the same compound, the GI50 (SF-268) was > 100 µM (inactive), the GI50 (HL-60) was > 100 µM (inactive) and the GI50 (OVCAR-5) was > 100 µM (inactive). The GI50 (A498) was > 100 µM (inactive), the GI50 (RXF 631) was > 100 µM (inactive) and the GI50 (OVCAR-3) was > 100 µM (inactive). The GI50 (SF-539) was > 100 µM (inactive), the GI50 (SK-MEL-5) was > 100 µM (inactive) and the GI50 (LXFL 529) was > 100 µM (inactive). For the same compound, the GI50 (SNB-75) was > 100 µM (inactive), the GI50 (UACC-62) was > 100 µM (inactive) and the GI50 (DMS-114) was > 100 µM (inactive). For the same compound, the GI50 (KM-20L2) was > 100 µM (inactive), the GI50 (HOP-62) was > 100 µM (inactive) and the GI50 (DMS-273) was > 100 µM (inactive). For the same compound, the GI50 (CCRF-CEM) was > 100 µM (inactive), the GI50 (XF498) was > 100 µM (inactive) and the GI50 (A549) was > 100 µM (inactive). For the same compound, the GI50 (OVCAR-8) was > 100 µM (inactive), the GI50 (SN12C) was > 100 µM (inactive) and the GI50 (EKVX) was > 100 µM (inactive). For the same compound, the GI50 (OVCAR-4) was > 100 µM (inactive), the GI50 (SW-620) was > 100 µM (inactive) and the GI50 (UACC-257) was > 100 µM (inactive). The GI50 (HT-29) was > 100 µM (inactive), the GI50 (COLO 205) was > 100 µM (inactive) and the GI50 (LOX IMVI) was > 100 µM (inactive). For the same compound, the GI50 (SK-MEL-28) was > 100 µM (inactive), the GI50 (SK-OV-3) was > 100 µM (inactive) and the GI50 (SK-MEL-2) was > 100 µM (inactive). For the same compound, the GI50 (MOLT-4) was > 100 µM (inactive), the GI50 (NCI-H522) was > 100 µM (inactive) and the GI50 (K562) was > 100 µM (inactive). The GI50 (U-251) was > 100 µM (inactive), the GI50 (Malme-3M) was > 100 µM (inactive) and the GI50 (M19-MEL) was > 100 µM (inactive). For the same compound, the GI50 (TK-10) was > 100 µM (inactive), the GI50 (NCI-H460) was > 100 µM (inactive) and the GI50 (RPMI-8226) was > 100 µM (inactive). The GI50 (HOP-18) was > 100 µM (inactive), the GI50 (IGROV-1) was > 100 µM (inactive) and the GI50 (HCT-15) was > 100 µM. For the same compound, the GI50 (HOP-92) was > 100 µM (inactive), the GI50 (UO-31) was > 100 µM (inactive) and the GI50 (SNB-19) was > 100 µM (inactive). The GI50 (RXF 393) was > 100 µM (inactive), the GI50 (786-0) was > 100 µM (inactive) and the GI50 (SF-295) was > 100 µM (inactive).
